Laboratory results taken from patent US10821152B2, “Methods, agents and compositions for treatment of inflammatory conditions” (Betanien Hospital, priority 2014, dated 2020).
“And” between values parts separate entries of the source, which are not always exact repeats. Identical values can stand only once. Non-standard residues stand in square brackets, D forms with d. Residues, ends and D or L forms follow the SMILES beside them. *: point of attachment. dPhe(4-NHCONH2) = NC(=O)Nc1ccc(C[C@@H](N)C(=O)O)cc1; Dihydroorotyl(S) = O=C1C[C@@H](C(=O)*)NC(=O)N1; dPhe(4-Cl) = N[C@H](Cc1ccc(Cl)cc1)C(=O)O; Phe(4-NH2) = Nc1ccc(C[C@H](N)C(=O)O)cc1; d2Nal = N[C@H](Cc1ccc2ccccc2c1)C(=O)O; Lys(iPr) = CC(C)NCCCC[C@H](N)C(=O)O; d3Pal = N[C@H](Cc1cccnc1)C(=O)O

How the values were obtained:
Type in all cases: in vivo, human
[1] = tested on: patient with ankylosing spondylitis; assay: Treatment of ankylosing spondylitis patient (BASDAI, laboratory variables); conditions: AS patient
Description: Diagnosed with ankylosing spondylitis in 1984, HLAB27 positive, with repeated iridocyclitis. Used non-steroidal anti-inflammatory drugs previously. They were offered the TNF-alpha inhibitor Golilimumab in 2010. Their disease activity score was 8.9 in October 2010 (see below for explanation of disease activity score) on initiating Golilimumab; by the June 2012 this score had reduced to 6.6, but by May 2013 the effect had worn off and their score was 7.6. May 2013, they initiated Enbrel treatment, but their disease activity increased from 7.6 to 8.3. Due to their poor response to TNF-alpha therapy, they were offered the GnRH antagonist Degarelix in September 2014.
Disease activity in ankylosing spondylitis is measured by the BASDAI (Bath Ankylosing Spondylitis Disease Activity Index1), has been extensively validated in clinical trials, 2, 3 and is one of the most commonly used outcome measures in clinical trials. This is a componsite index that evaluates fatigue, axial and peripheral pain, stiffness and enthesopathy. Their BASDAI was at 8.7 at baseline. In September 2014 they received their first dose of Degarelix 240 mg sc. By 2 weeks, their BASDAI had reduced to 6.8, and by 6 weeks it had reduced to 5.8. This is the lowest BASDAI score they have ever had since we first started using this method of assessment 4 years ago in 2010. Their morning stiffness lasted 4 hours at baseline, by 6 weeks their morning stiffness had reduced to 2 hours. They had their second dose of Degarelix 80 mg s.c in October 2014. Lumbar flexion and maximum arm abduction were increased after 6 weeks of treatment.
Response to therapy in clinical practice is defined as improvement of 2 units or 50% on a 0-10 scale of the BASDAI, and expert opinion that the treatment should be continued. Their reduction by 6 weeks was 2.9 units, and 7.1 units with an 82% BASDAI score improvement by 9 weeks, and we shall continue treatment. A BASDAI 50% improvement is defined as a major clinical response. […] For comparison, approximately 50-60% of patients achieve a BASDAI 50 by 12 weeks on TNF inhibitors (4). Their ESR has decreased from 46 mm to 23 mm, which is their lowest ESR reading in 19 years. […] By 9 weeks of GnRH antagonist therapy, their kidney function has normalized, and fasting glucose reduced from 7.4 to 6.5 mmol/L. By 3 months, the effect on their ankylosing spondylitis remained, creatinine was at 98 umol/L, with a glomerular filtration rate of 66 ml/min/1.73 m2 in December 2014.

[2] = tested on: patient with spondyloarthritis; assay: Treatment of spondyloarthritis with Degarelix (BASDAI)
Method: • person, diagnosed with spondyloarthritis • Fulfilled the ASAS criteria for axial radiographic spondyloarthritis. Experimental Treatment • October 2014 received first dose of Degarelix 240 mg sc. • Received Degarelix 80 mg sc every two weeks thereafter. Assessment of Response Disease activity in ankylosing spondylitis/spondyloarthritis is measured by the BASDAI (Bath Ankylosing Spondylitis Disease Activity Index^1), has been extensively validated in clinical trials^2-3, and is one of the most commonly used outcome measures in clinical trials. This is a composite index that evaluates fatigue, axial and peripheral pain, stiffness and enthesopathy. Their BASDAI was at 3.8 at baseline. In October 2014 they received their first dose of Degarelix 240 mg sc. By 2 weeks, their BASDAI had reduced to 2.9, and by 8 weeks it had reduced to 1.3, remission. At 4 months, their BASDAI continues to be low at 1.5. • Response to therapy in clinical practice is defined as improvement of 2 units or 50% on a 0-10 scale of the BASDAI, and expert opinion that the treatment should be continued. Their reduction by 4 moths was 2.3 we shall continue treatment.

[3] = tested on: patient with seropositive rheumatoid arthritis; assay: Treatment of RA using Degarelix 40 mg weekly
Method: • person with seropositive rheumatoid arthritis with disease duration of 22 years. • Fulfilled ACR 2010 classification criteria for rheumatoid arthritis. Experimental Treatment • Had tried most therapies available (for example: Humira, Remicade, Enbrel, Actemra, several disease modifying anti-rheumatic drugs), previously without effect or intolerable side effects. • Offered experimental GnRH antagonist therapy, Degarelix 40 mg every week with 240 mg loading dose at baseline. Assessment of Response • Disease activity score (DAS) reduction from 7.3 to 6.7 at 2 weeks. • A DAS reduction of 0.6 units is defined as a clinical response to treatment (1). • Their ESR has decreased from 62 mm to 38 mm, with a decrease in their CRP from 87 mg/L to 67 mg/L.

CC(=O)N[C@H](Cc1ccc2ccccc2c1)C(=O)N[C@H](Cc1ccc(Cl)cc1)C(=O)N[C@H](Cc1cccnc1)C(=O)N[C@@H](CO)C(=O)N[C@@H](Cc1ccc(NC(=O)[C@@H]2CC(=O)NC(=O)N2)cc1)C(=O)N[C@H](Cc1ccc(NC(N)=O)cc1)C(=O)N[C@@H](CC(C)C)C(=O)N[C@@H](CCCCNC(C)C)C(=O)N1CCC[C@H]1C(=O)N[C@H](C)C(N)=O [Degarelix] (Ac-[d2Nal][dPhe(4-Cl)][d3Pal]S[Phe(4-NH2)](Dihydroorotyl(S))[dPhe(4-NHCONH2)]L[Lys(iPr)]P[dA]-NH2)
ASAS response (at least 80% improvement) [1]: achieved an ASAS 80 | CRP ([1]; 10.09.14 (baseline)): <5 | Creatinine (60-105 umol/L) ([1]; 10.09.14 (baseline)): 112↑ umol/L | ESR <20 mm ([1]; 10.09.14 (baseline)): 46 mm and 46↑ mm | Glomerular filtration rate (>60 ml/min/1.73 m^2) ([1]; 10.09.14 (baseline)): 56↓ ml/min/1.73 m^2 | Glucose fasting (4.0-6.0 mmol/L) ([1]; 10.09.14 (baseline)): 7.4 mmol/L | Urate (230-480 umol/L) ([1]; 10.09.14 (baseline)): 515 umol/L and 515↑ umol/L | CRP ([1]; 10.11.14): <5 | Creatinine (60-105 umol/L) ([1]; 10.11.14): 99 µmol/L | Glomerular filtration rate (>60 ml/min/1.73 m^2) ([1]; 10.11.14): 65 ml/min/1.73 m^2 | Urate (230-480 umol/L) ([1]; 10.11.14): 426 µmol/L | Glucose fasting (4.0-6.0 mmol/L) ([1]; 10.11.14 (by 9 weeks)): 6.5 mmol/L | CRP ([1]; 24.09.14): <5 | Creatinine (60-105 umol/L) ([1]; 24.09.14): 114↑ umol/L | ESR <20 mm ([1]; 24.09.14): 31↑ mm | Glomerular filtration rate (>60 ml/min/1.73 m^2) ([1]; 24.09.14): 55↓ ml/min/1.73 m^2 | Urate (230-480 umol/L) ([1]; 24.09.14): 512↑ umol/L | CRP ([1]; 27.10.14): <5 | Creatinine (60-105 umol/L) ([1]; 27.10.14): 111↑ umol/L | ESR <20 mm ([1]; 27.10.14): 28↑ mm | Glomerular filtration rate (>60 ml/min/1.73 m^2) ([1]; 27.10.14): 56↓ ml/min/1.73 m^2 | Urate (230-480 umol/L) ([1]; 27.10.14): 495↑ umol/L | Lumbar flexion and maximum arm abduction ([1]; after 6 weeks of treatment): increased | BASDAI ([1]; baseline): 8.7 | morning stiffness ([1]; baseline): 4 h | BASDAI ([1]; by 2 weeks): 6.8 | creatinine ([1]; by 3 months (December 2014)): 98 µmol/L | glomerular filtration rate ([1]; by 3 months (December 2014)): 66 ml/min/1.73 m2 | BASDAI ([1]; by 6 weeks): 5.8 | BASDAI reduction ([1]; by 6 weeks): 2.9 units | morning stiffness ([1]; by 6 weeks): 2 h | BASDAI reduction ([1]; by 9 weeks): 7.1 units | BASDAI score improvement ([1]; by 9 weeks): 82% | kidney function ([1]; by 9 weeks): normalized | BASDAI ([2]; at 4 months): 1.5 | BASDAI ([2]; baseline): 3.8 | BASDAI ([2]; by 2 weeks): 2.9 | BASDAI ([2]; by 8 weeks (remission)): 1.3 | Disease activity score (DAS) ([3]; at 2 weeks, 240 mg loading, 40 mg weekly): 6.7 | CRP ([3]; baseline): 87 mg/L | Disease activity score (DAS) ([3]; baseline): 7.3 | ESR ([3]; baseline): 62 mm | CRP ([3]; on Degarelix 40 mg weekly): 67 mg/L | ESR ([3]; on Degarelix 40 mg weekly): 38 mm
